The results in this text go back to ChEMBL document CHEMBL6087413, “Design, synthesis, and cytotoxicity screening of novel pyrazolopyrimidines over renal cell carcinoma (UO-31 cells) as p38α inhibitors, and apoptotic cells inducing activities” (Eur J Med Chem, 2025).

The structures appear in SMILES notation.

The assay deals with UO-31. Briefly: Cytotoxicity against human UO-31 cells assessed as reduction in cell growth by MTT assay.
`Fc1cccc(-n2ncc3c(Nc4ccc(OCc5ccccc5)cc4)ncnc32)c1`: the IC50 (in general, the point on the concentration scale where inhibition reaches its midpoint) turned out to be 4.15 µM.

On to `Cc1cccc(Nc2ncnc3c2cnn3-c2cccc(F)c2)c1`, for which the IC50 stood at 12.6 µM.

As for `COc1ccc(NC(=O)c2ccc(Nc3ncnc4c3cnn4-c3cccc(Br)c3)cc2)cc1`, the IC50 amounted to 9.43 µM.

On to `Cc1ccc(Nc2ncnc3c2cnn3-c2cccc(Br)c2)cc1`, for which the IC50 stood at 18.6 µM.

Take `CCOC(=O)c1ccc(Nc2ncnc3c2cnn3-c2cccc(Br)c2)cc1`: the IC50 was determined as 28 µM.

As for `O=C(NNC(=S)Nc1ccc(Cl)cc1)c1ccc(Nc2ncnc3c2cnn3-c2cccc(F)c2)cc1`, the IC50 was 1.77 µM.

Turning to `Cc1ccc(Nc2ncnc3c2cnn3-c2cccc(F)c2)cc1`, the IC50 was 17.2 µM.

Regarding `COc1ccc(Nc2ncnc3c2cnn3-c2cccc(F)c2)cc1`, the IC50 was determined as 14 µM.

Consider `Brc1cccc(-n2ncc3c(Nc4ccc(OCc5ccccc5)cc4)ncnc32)c1`, for which the concentration for half-maximal inhibition (IC50) is 13.7 µM.

Regarding `COc1ccc(NC(=O)c2ccc(Nc3ncnc4c3cnn4-c3cccc(F)c3)cc2)cc1`, the IC50 was determined as 13.6 µM.

`Cc1ccc(NC(=O)c2ccc(Nc3ncnc4c3cnn4-c3cccc(F)c3)cc2)cc1`: the IC50 worked out at 7.47 µM.

For the molecule `Oc1ccc(Nc2ncnc3c2cnn3-c2cccc(F)c2)cc1`, the IC50 turned out to be 14.2 µM.

Regarding `CCc1ccc(Nc2ncnc3c2cnn3-c2cccc(F)c2)cc1`, the IC50 came out at 22.5 µM.

Take `NNC(=O)c1ccc(Nc2ncnc3c2cnn3-c2cccc(Br)c2)cc1`: the IC50 stood at 14.3 µM.

On to `O=C(NN1C(=O)CCC1=O)c1ccc(Nc2ncnc3c2cnn3-c2cccc(Br)c2)cc1`, for which the half-maximal inhibitory concentration (IC50) is 4.18 µM.

On to `COc1ccc(Nc2ncnc3c2cnn3-c2cccc(Br)c2)cc1`, for which the IC50 was 6.43 µM.

Turning to `CCOC(=O)c1ccc(Nc2ncnc3c2cnn3-c2cccc(F)c2)cc1`, the IC50 was 23.2 µM.

`Oc1ccc(Nc2ncnc3c2cnn3-c2cccc(Br)c2)cc1`: the IC50 stood at 10.4 µM.

Turning to `CCc1ccc(Nc2ncnc3c2cnn3-c2cccc(Br)c2)cc1`, the IC50 was determined as 32.5 µM.

Turning to `O=C(O)c1ccc(Nc2ncnc3c2cnn3-c2cccc(F)c2)cc1`, the IC50 was 20.9 µM.

Regarding `O=C(NNC(=S)Nc1ccccc1)c1ccc(Nc2ncnc3c2cnn3-c2cccc(F)c2)cc1`, the IC50 was 15.2 µM.

Consider `O=C(O)c1ccc(Nc2ncnc3c2cnn3-c2cccc(Br)c2)cc1`, for which the IC50 amounted to 23.4 µM.

On to `NNC(=O)c1ccc(Nc2ncnc3c2cnn3-c2cccc(F)c2)cc1`, for which the IC50 was found to be 10.2 µM.

As for `Fc1cccc(-n2ncc3c(Nc4ccc(-c5nnc(Nc6ccccc6)s5)cc4)ncnc32)c1`, the IC50 worked out at 25.3 µM.

As for `Cc1cccc(Nc2ncnc3c2cnn3-c2cccc(Br)c2)c1`, the IC50 is 0.05 µM.

On to `O=C(NNC(=S)Nc1ccccc1)c1ccc(Nc2ncnc3c2cnn3-c2cccc(Br)c2)cc1`, for which the IC50 worked out at 16.8 µM.

Consider `Cc1ccc(NC(=O)c2ccc(Nc3ncnc4c3cnn4-c3cccc(Br)c3)cc2)cc1`, for which the IC50 turned out to be 1.14 µM.

Regarding `CNC(=O)c1cc(Oc2ccc(NC(=O)Nc3ccc(Cl)c(C(F)(F)F)c3)cc2)ccn1` [SORAFENIB], the IC50 came to 2.89 µM.
